Laboratory results from US8664379B2, “Fused heterocyclic compounds as ion channel modulators” (Gilead Sciences, Inc., priority 2008, dated 2014).
“And” between values parts separate entries of the source, which are not always exact repeats. Equal entries are not always repeated.

Key:
[1] = target: wild-type human cardiac sodium channel, hNav1.5 (late sodium current) (Homo sapiens, UniProt Q14524); assay: Late INa screening assay (PatchXpress whole cell patch clamp); type: cell-based; conditions: HEK293, 10 μM test compound; HEK293 cells expressing hNav1.5; late INa generated with 10 μM Tefluthrin (some experiments 50 nM ATX II); read-out: Late INa % blk (10 μM test cmpd)
wild-type human cardiac sodium channel, hNav1.5 (late sodium current), sequence (Q14524 whole entry): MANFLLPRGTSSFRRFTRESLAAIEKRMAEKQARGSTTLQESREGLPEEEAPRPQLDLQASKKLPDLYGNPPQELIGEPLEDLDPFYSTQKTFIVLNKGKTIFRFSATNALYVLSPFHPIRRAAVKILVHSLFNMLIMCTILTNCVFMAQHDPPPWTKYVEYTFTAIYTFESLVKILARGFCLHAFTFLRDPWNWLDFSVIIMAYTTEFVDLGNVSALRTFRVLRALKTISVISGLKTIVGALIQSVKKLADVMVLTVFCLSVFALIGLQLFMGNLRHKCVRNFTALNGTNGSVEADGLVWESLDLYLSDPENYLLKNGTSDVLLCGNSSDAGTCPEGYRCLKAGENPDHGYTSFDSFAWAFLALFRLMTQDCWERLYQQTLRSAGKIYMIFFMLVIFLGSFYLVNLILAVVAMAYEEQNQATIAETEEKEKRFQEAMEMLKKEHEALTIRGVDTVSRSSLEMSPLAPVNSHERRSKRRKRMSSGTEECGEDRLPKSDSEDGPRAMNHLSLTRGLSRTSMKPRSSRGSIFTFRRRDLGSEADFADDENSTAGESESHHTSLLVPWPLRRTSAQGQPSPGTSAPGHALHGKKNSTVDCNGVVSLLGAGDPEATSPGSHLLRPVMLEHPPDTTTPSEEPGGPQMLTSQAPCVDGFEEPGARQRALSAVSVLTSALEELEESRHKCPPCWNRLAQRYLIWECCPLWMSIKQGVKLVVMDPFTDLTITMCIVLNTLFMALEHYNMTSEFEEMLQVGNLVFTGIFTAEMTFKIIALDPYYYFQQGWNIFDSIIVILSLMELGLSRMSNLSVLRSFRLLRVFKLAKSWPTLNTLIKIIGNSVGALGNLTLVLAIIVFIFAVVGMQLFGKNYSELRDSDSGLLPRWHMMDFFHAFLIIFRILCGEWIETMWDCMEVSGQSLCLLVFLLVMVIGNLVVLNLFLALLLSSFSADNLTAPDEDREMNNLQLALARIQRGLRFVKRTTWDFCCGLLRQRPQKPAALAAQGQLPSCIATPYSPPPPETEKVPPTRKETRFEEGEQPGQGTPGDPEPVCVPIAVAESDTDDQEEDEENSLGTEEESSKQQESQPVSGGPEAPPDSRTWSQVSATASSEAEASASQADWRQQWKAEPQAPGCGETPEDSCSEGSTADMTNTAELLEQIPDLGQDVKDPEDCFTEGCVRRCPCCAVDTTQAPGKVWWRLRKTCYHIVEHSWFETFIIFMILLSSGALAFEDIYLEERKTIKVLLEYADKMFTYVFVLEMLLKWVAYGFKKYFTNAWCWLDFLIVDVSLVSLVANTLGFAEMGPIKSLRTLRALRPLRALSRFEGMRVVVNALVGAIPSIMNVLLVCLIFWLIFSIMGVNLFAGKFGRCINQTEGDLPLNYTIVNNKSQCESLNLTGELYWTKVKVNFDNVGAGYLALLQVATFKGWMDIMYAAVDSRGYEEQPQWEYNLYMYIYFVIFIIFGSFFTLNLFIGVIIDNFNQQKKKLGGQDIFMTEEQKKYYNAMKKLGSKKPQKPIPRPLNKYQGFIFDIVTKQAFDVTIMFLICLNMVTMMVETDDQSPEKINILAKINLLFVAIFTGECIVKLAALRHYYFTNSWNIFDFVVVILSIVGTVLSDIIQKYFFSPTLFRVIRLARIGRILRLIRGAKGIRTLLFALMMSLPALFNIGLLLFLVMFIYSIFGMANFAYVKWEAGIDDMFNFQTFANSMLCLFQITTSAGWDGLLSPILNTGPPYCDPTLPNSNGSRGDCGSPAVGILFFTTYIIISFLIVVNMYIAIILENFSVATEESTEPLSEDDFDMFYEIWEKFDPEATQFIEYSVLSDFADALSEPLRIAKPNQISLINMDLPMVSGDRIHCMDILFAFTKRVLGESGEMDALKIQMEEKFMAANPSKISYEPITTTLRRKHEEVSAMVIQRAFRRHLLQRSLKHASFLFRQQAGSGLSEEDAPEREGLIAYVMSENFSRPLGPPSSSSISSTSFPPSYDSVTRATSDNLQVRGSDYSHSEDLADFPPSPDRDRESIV
Method: The late sodium current (Late INa) and peak sodium current (Peak INa) assays were performed on an automated electrophysiology platform, PatchXpress 7000A (MDS Analytical Technologies, Sunnyvale, Calif.), which uses the whole cell patch clamp technique to measure currents through the cell membrane of up to 16 cells at a time. The assay used an HEK293 (human embryonic kidney) cell line heterologously expressing the wild-type human cardiac sodium channel, hNav1.5, purchased from Millipore (Billerica, Mass.). No beta subunits were coexpressed with the Na channel alpha subunit. Cells were maintained with standard tissue culture procedures and stable channel expression was maintained with 400 μg/ml Geneticin in the culture medium. Cells isolated for use on PatchXpress were incubated for 5 minutes in Versene 1× and then for 2 minutes in 0.0125% Trypsin-EDTA (both at 37° C.) to ensure that 80-90% of the cells are single and not part of a cell cluster. Experiments were carried out at 24-27° C.
For both the Late INa and Peak INa assays, series resistance compensation was set to 50% and whole-cell compensation was performed automatically. Currents were low-pass filtered at 10 kHz and digitized at 31.25 kHz. Currents through open sodium channels were automatically recorded and stored in the DataXpress2 database (MDS Analytical Technologies, Sunnyvale, Calif.). Analysis was performed using DataXpress2 analysis software and data are compiled in Excel.
Compound stocks were routinely made in glass vials to 10 mM in dimethyl sulfoxide (DMSO). In some cases, when compounds were not soluble in DMSO, they were made in 100% ethanol. Stocks were sonicated as necessary. The extracellular solution for screening Late INa was composed of: 140 mM NaCl, 4 mM KCl, 1.8 mM CaCl2, 0.75 mM MgCl2, and 5 mM HEPES with pH adjusted to 7.4 using NaOH. The extracellular solution for screening Peak INa was composed of: 20 mM NaCl, 120 mM N-methyl-D glucamine, 4 mM KCl, 1.8 mM CaCl2, 0.75 mM MgCl2, and 5 mM HEPES with pH adjusted to 7.4 using HCl. The intracellular solution used to perfuse the inside of the cells for both the Late INa and Peak INa assays contains: 120 mM CsF, 20 mM CsCl, 5 mM EGTA, 5 mM HEPES and pH adjusted to 7.4 with CsOH. Compounds were diluted in extracellular solution to 10 μM in glass vials and then transferred to glass well plates before robotic addition to the cells. The 0Na extracellular solution used at the end of each experiment for the Late INa and Peak INa assays to measure baseline current contained: 140 mM N-methyl-D-glucamine; 4 mM KCl; 1.8 mM CaCl2; 0.75 mM MgCl2; 5 mM HEPES and pH was adjusted to 7.4 with HCl.
For the Late INa assay, sodium channels were activated every 10 seconds (0.1 Hz) by depolarizing the cell membrane to −20 mV for 250 milliseconds (ms) from a holding potential of −120 mV. In response to a −20 mV voltage step, typical Nav1.5 sodium currents activated rapidly to a peak negative current and then inactivated nearly completely within 3-4 ms.
All compounds were tested to determine their activity in blocking the late sodium current. Late INa current is generated by adding 10 μM Tefluthrin (pyrethroid) to the extracellular solution while recording Na currents. For some experiments, 50 nM ATX II (sea anemone toxin), another late INa activator, was used to generate the late component. Both activators generate late components that are large enough that block of the late component by compounds can be measured easily. For the purposes of the screening, late INa is defined as the mean current between 225 ms and 250 ms after stepping to −20 mV to activate Na channels. After establishing the whole cell recording configuration, late INa activators were added to each well 4 times over a 16-17 minute period so that the late component of the Na current reached a stable value. Compounds were then added (typically at 10 μM), in the presence of late INa activator, with 3 additions over the course of 7 or 8 minutes. […]

hERG potassium channel = target: T1, hERG potassium channel (Homo sapiens, UniProt Q12809); assay: hERG screening assay (PatchXpress patch clamp); type: cell-based; conditions: hERG expressed in CHO cells, peak current at -50 mV; for hERG Patch Clamp hERG % blk 1 μm: 1 μM test compound; for hERG Patch Clamp hERG % blk 10 μm: 10 μM test compound
T1 construct: expressed in transfected cells
T1 sequence (Q12809 whole entry): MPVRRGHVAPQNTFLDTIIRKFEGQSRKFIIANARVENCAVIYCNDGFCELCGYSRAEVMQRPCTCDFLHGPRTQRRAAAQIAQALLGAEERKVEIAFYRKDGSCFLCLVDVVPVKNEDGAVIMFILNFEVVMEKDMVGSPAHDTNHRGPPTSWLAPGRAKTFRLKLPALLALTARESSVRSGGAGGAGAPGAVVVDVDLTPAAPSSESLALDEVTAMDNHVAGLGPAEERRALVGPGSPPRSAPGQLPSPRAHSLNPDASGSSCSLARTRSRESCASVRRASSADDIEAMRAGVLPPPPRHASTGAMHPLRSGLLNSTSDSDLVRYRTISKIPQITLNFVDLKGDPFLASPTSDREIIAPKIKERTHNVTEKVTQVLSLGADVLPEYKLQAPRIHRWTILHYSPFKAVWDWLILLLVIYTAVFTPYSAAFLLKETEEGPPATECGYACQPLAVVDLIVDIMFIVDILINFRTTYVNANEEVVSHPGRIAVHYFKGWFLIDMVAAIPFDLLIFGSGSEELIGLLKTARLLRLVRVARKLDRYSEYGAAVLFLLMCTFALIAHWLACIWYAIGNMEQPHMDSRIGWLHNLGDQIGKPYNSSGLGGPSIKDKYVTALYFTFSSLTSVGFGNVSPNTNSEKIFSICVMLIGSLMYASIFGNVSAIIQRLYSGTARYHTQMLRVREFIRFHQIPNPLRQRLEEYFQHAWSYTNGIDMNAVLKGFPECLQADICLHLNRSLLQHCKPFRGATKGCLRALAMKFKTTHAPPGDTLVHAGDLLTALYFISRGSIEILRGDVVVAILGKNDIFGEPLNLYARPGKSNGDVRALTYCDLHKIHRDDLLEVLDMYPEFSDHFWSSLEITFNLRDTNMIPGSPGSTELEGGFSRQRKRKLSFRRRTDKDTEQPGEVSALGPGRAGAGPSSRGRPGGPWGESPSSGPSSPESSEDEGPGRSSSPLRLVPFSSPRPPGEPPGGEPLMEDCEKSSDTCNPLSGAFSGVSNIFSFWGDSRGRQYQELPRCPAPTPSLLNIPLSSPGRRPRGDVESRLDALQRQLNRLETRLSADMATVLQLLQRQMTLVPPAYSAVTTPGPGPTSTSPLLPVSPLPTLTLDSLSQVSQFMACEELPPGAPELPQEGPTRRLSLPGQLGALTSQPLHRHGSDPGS
Method: Compounds were screened to test their activity in blocking the hERG potassium channel. The hERG channel was heterologously expressed in a CHO (Chinese Hamster Ovary) cell line. Cells were maintained with standard tissue culture procedures and stable channel expression was maintained with 500 μg/ml G418 in the culture medium. Cells were harvested for testing on the PatchXpress automated patch clamp with Accumax (Innovative Cell Technologies, San Diego, Calif.) to isolate single cells.
The following solutions were used for electrophysiological recordings. The external solution contained: 2 mM CaCl2; 2 mM MgCl2; 4 mM KCl; 150 mM NaCl; 10 mM Glucose; 10 mM HEPES (pH 7.4 with 1M NaOH, osmolarity). The internal solution contained: 140 mM KCl, 10 mM MgCl2, 6 mM EGTA, 5 mM HEPES, 5 mM ATP (pH adjusted to 7.25 with KOH).
hERG channels are activated when the voltage is stepped to +20 mV from the −80 mV holding potential. During a 5 second step at +20 mV, the channels activated and then largely inactivated, so the currents were relatively small. Upon returning to −50 mV from +20 mV, hERG currents transiently became much larger as inactivation was rapidly removed and then the channel closed. The first step to −50 mV for 300 ms was used as a baseline for measuring the peak amplitude during the step to −50 mV after channel activation. The peak current at −50 mV was measured both under control conditions and after addition of compound.
All compounds were prepared as 10 mM DMSO stocks in glass vials. Stock solutions were mixed by vigorous vortexing and sonication for about 2 minutes at room temperature. For testing, compounds were diluted in glass vials using an intermediate dilution step in pure DMSO and then further diluted to working concentrations in external solution. Dilutions were prepared no longer than 20 minutes before use.
After achieving the whole-cell configuration, cells were monitored for 90 seconds to assess stability and washed with external solution for 66 seconds. The voltage protocol described above was then applied to the cells every 12 seconds and throughout the whole procedure. Only cells with stable recording parameters and meeting specified health criteria were allowed to enter the compound addition procedure.
External solution containing 0.1% DMSO (vehicle) was applied to the cells first to establish the control peak current amplitude. After allowing the current to stabilize for 3 to 5 minutes, 1 μM and then 10 μM test compounds were applied. Each compound concentration was added 4 times and cells were kept in test solution until the effect of the compound reached steady state or for a maximum of 12 minutes. After addition of test compound, a positive control (1 μM Cisapride) was added—it must block >95% of the current for the experiment to be considered valid. Washout in the external solution compartment was performed until the recovery of the current reached steady state. Data were analyzed using DataXpress, Clampfit (Molecular Devices, Inc., Sunnyvale) and Origin 7 (Originlab Corp.)

SMILES	inhibition at 10 µM [1] [%]	hERG Patch Clamp hERG % blk 1 μm (hERG potassium channel)	hERG Patch Clamp hERG % blk 10 μm (hERG potassium channel)
O=C(O)CN1C(=O)CCc2cc(-c3ccc(Cl)c(Cl)c3)ccc21 [Compound 69, [6-(3,4-dichlorophenyl)-2-oxo-3,4-dihydroquinolin-1(2H)-yl]acetic acid]	16	10%	10%
O=C1CCc2cc(-c3cccc(F)c3)ccc2N1 [Compound 1, 6-(3-fluorophenyl)-3,4-dihydroquinolin-2(1H)-one]	74	10%	19%
Cc1cc(CN2C(=O)CCc3cc(-c4ccc(OC(F)(F)F)cc4)ccc32)no1 [Compound 39, 1-[(5-methylisoxazol-3-yl)methyl]-6-[4-(trifluoromethoxy)phenyl]-3,4-dihydroquinolin-2(1H)-one]	60	12%	96%
O=C1CCc2cc(-c3ccc(F)c(F)c3)ccc2N1CCO [Compound 15, 6-(3,4-difluorophenyl)-1-(2-hydroxyethyl)-3,4-dihydroquinolin-2(1H)-one]	36	13%	59%
CCOC(=O)CN1C(=O)CCc2cc(-c3ccc(OC(F)(F)F)cc3)ccc21 [Compound 25, ethyl {2-oxo-6-[4-(trifluoromethoxy)phenyl]-3,4-dihydroquinolin-1(2H)-yl}acetate]	20	26%	32%
CC(C)(C)OC(=O)CN1C(=O)CCc2cc(-c3ccc(C(F)(F)F)cc3)ccc21 [Compound 29, tert-butyl {2-oxo-6-[4-(trifluoromethyl)phenyl]-3,4-dihydroquinolin-1(2H)-yl}acetate]	69	11%	97%
CC(O)CN1C(=O)CCc2cc(-c3ccc(OC(F)(F)F)cc3)ccc21 (stereo not drawn) [Compound 89, 1-(2-hydroxypropyl)-6-[4-(trifluoromethoxy)phenyl]-3,4-dihydroquinolin-2(1H)-one]	42	24% and 16%	67% and 72%
O=C(O)CN1C(=O)CCc2cc(-c3ccc(Oc4ccccc4)cc3)ccc21 [Compound 70, [2-oxo-6-(4-phenoxyphenyl)-3,4-dihydroquinolin-1(2H)-yl]acetic acid]	17	10%	10%
O=C1CCc2cc(-c3ccc(OC(F)(F)F)cc3)ccc2N1 [Compound 34, 6-[4-(trifluoromethoxy)phenyl]-3,4-dihydroquinolin-2(1H)-one]	60	13%	37%
O=C1CCc2cc(-c3ccccc3)ccc2N1 [Compound 4, 6-phenyl-3,4-dihydroquinolin-2(1H)-one]	48	10%	16%
O=C(O)CN1C(=O)CCc2cc(-c3ccc(Cl)c(F)c3)ccc21 [Compound 58, [6-(4-chloro-3-fluorophenyl)-2-oxo-3,4-dihydroquinolin-1(2H)-yl]acetic acid]	13	10%	10%
O=C(O)CN1C(=O)CCc2cc(-c3cccc(C(F)(F)F)c3)ccc21 [Compound 60, 2-(2-oxo-6-(3-(trifluoromethyl)phenyl)-3,4-dihydroquinolin-1(2H)-yl)acetic acid]	25	10%	10%
O=C1CCc2cc(-c3ccc(F)cc3F)ccc2N1Cc1csc(-c2ccc(Cl)cc2)n1 [Compound 26, 1-{[2-(4-chlorophenyl)-1,3-thiazol-4-yl]methyl}-6-(2,4-difluorophenyl)-3,4-dihydroquinolin-2(1H)-one]	20	10%	10%
COCCN1C(=O)CCc2cc(-c3ccc(F)cc3F)ccc21 [Compound 27, 6-(2,4-difluorophenyl)-1-(2-methoxyethyl)-3,4-dihydroquinolin-2(1H)-one]	52	12%	47%
CN1C(=O)CCc2cc(-c3cccc(F)c3)ccc21 [Compound 21, 6-(3-fluorophenyl)-1-methyl-3,4-dihydroquinolin-2(1H)-one]	65	11%	36%
O=C1CCc2cc(-c3ccc(C(F)(F)F)cc3)ccc2N1CCO [Compound 14, 1-(2-hydroxyethyl)-6-[4-(trifluoromethyl)phenyl]-3,4-dihydroquinolin-2(1H)-one]	29	10%	28%
